Measured values from PMC12586182 (Frontiers in Oncology, 2025).

Assays:
Assay in all cases: Kinase panel profiling at 1 µmol/L (mobility shift assay, Carna)
Type in all cases: biochemical
Conditions in all cases: 1 µmol/L of BTK inhibitor
[1] = target: T1, FRK (Homo sapiens, UniProt P42685)
T1 construct: purchased Carna Biosciences

[2] = target: T2, ROS (Homo sapiens, UniProt P08922)
T2 construct: purchased Carna Biosciences

[3] = target: T3, CDC2/CycB1 (Homo sapiens, UniProt P06493)
T3 construct: purchased Carna Biosciences

[4] = target: T4, CDK4/CycD3 (Homo sapiens, UniProt P11802)
T4 construct: purchased Carna Biosciences

[5] = target: T5, CGK2 (Homo sapiens, UniProt Q13237)
T5 construct: purchased Carna Biosciences
T5 sequence (Q13237 1-762): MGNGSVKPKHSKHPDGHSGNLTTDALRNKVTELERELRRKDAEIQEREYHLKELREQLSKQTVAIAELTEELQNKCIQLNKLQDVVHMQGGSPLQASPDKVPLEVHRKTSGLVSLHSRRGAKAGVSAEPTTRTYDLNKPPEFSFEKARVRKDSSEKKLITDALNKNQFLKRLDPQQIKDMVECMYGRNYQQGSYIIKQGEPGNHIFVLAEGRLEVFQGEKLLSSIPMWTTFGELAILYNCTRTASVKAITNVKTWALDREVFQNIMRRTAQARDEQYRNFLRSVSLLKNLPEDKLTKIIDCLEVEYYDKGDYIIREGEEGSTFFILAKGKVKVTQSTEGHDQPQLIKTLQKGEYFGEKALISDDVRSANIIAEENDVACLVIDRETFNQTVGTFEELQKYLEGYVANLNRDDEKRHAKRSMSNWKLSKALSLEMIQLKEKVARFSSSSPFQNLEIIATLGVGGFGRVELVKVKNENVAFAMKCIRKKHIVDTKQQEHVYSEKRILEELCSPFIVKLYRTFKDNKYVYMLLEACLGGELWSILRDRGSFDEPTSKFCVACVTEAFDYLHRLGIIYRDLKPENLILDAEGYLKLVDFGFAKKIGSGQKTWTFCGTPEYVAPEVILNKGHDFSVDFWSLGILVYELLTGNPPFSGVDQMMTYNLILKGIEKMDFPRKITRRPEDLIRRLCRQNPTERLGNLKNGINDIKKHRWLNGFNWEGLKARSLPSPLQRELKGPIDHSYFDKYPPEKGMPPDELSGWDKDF

[6] = target: T6, JNK1 (Homo sapiens, UniProt P45983)
T6 construct: purchased Carna Biosciences

[7] = target: T7, JNK2 (Homo sapiens, UniProt P45984)
T7 construct: purchased Carna Biosciences

[8] = target: T8, MRCKα (Homo sapiens, UniProt Q5VT25)
T8 construct: purchased Carna Biosciences

[9] = target: T9, NIM1K (Homo sapiens, UniProt Q8IY84)
T9 construct: purchased Carna Biosciences

[10] = target: T10, PAK1 (Homo sapiens, UniProt Q13153)
T10 construct: purchased Carna Biosciences

[11] = target: T11, PHKG1 (Homo sapiens, UniProt Q16816)
T11 construct: purchased Carna Biosciences

[12] = target: T12, PKD2 (Homo sapiens, UniProt Q9BZL6)
T12 construct: purchased Carna Biosciences
T12 sequence (Q9BZL6 1-878): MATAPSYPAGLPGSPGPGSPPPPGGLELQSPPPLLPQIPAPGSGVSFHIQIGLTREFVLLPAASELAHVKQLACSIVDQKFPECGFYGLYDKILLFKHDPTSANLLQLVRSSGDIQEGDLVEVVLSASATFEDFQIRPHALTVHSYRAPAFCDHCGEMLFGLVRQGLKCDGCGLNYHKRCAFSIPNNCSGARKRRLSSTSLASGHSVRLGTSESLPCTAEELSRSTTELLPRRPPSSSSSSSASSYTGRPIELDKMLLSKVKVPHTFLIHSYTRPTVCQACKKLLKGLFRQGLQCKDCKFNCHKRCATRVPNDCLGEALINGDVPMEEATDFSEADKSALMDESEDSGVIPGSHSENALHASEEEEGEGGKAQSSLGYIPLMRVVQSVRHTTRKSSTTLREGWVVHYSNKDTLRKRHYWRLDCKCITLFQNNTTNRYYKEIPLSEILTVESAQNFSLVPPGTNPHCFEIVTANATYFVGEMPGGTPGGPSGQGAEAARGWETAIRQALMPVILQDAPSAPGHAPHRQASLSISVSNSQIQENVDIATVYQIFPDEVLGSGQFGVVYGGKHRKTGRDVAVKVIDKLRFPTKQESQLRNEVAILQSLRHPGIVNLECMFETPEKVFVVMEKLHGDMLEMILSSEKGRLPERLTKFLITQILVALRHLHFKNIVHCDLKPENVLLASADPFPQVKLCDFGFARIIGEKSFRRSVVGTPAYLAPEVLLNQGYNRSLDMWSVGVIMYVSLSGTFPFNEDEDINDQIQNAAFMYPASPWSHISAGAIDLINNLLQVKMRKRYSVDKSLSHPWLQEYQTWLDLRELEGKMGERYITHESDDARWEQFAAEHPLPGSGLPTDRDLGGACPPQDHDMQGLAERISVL

[13] = target: T13, ROCK1 (Homo sapiens, UniProt Q13464)
T13 construct: purchased Carna Biosciences

[14] = target: T14, WNK1 (Homo sapiens, UniProt Q9H4A3)
T14 construct: purchased Carna Biosciences

T3 sequence (P06493 whole entry): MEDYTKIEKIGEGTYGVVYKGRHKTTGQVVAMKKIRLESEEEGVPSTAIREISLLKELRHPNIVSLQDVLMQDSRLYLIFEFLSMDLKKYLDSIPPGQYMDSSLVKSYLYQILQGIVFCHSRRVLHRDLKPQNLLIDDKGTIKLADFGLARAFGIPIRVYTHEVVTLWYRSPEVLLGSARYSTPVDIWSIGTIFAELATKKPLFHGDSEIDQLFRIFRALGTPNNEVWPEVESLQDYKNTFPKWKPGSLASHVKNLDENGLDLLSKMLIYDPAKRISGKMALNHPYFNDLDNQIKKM
T3 sequence (P14635 whole entry partner): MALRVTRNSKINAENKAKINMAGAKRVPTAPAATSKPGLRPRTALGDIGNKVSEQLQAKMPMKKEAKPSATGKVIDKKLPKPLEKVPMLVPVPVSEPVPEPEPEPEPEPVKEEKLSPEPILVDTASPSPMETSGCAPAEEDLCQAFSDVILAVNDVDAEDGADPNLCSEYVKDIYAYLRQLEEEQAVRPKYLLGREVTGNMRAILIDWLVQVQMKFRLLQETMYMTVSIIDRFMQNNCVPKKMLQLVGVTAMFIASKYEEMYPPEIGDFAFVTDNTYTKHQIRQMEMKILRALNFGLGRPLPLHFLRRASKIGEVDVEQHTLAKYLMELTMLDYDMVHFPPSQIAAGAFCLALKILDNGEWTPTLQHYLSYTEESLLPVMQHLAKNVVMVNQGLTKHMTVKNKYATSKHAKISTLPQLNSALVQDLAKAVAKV
T9 sequence (Q8IY84 whole entry): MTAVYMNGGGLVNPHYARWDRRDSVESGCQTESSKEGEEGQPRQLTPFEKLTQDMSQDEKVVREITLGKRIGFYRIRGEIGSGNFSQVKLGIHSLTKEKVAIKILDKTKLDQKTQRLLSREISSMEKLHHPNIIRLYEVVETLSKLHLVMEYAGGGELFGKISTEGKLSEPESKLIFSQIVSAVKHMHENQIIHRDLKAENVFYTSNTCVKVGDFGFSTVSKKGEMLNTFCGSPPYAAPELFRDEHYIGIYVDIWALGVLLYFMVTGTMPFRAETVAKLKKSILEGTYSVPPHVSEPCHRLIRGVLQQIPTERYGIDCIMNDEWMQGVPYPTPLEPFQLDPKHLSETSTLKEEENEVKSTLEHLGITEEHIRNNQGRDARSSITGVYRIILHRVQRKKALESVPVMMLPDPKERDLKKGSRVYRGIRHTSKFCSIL
T8 sequence (Q5VT25 whole entry): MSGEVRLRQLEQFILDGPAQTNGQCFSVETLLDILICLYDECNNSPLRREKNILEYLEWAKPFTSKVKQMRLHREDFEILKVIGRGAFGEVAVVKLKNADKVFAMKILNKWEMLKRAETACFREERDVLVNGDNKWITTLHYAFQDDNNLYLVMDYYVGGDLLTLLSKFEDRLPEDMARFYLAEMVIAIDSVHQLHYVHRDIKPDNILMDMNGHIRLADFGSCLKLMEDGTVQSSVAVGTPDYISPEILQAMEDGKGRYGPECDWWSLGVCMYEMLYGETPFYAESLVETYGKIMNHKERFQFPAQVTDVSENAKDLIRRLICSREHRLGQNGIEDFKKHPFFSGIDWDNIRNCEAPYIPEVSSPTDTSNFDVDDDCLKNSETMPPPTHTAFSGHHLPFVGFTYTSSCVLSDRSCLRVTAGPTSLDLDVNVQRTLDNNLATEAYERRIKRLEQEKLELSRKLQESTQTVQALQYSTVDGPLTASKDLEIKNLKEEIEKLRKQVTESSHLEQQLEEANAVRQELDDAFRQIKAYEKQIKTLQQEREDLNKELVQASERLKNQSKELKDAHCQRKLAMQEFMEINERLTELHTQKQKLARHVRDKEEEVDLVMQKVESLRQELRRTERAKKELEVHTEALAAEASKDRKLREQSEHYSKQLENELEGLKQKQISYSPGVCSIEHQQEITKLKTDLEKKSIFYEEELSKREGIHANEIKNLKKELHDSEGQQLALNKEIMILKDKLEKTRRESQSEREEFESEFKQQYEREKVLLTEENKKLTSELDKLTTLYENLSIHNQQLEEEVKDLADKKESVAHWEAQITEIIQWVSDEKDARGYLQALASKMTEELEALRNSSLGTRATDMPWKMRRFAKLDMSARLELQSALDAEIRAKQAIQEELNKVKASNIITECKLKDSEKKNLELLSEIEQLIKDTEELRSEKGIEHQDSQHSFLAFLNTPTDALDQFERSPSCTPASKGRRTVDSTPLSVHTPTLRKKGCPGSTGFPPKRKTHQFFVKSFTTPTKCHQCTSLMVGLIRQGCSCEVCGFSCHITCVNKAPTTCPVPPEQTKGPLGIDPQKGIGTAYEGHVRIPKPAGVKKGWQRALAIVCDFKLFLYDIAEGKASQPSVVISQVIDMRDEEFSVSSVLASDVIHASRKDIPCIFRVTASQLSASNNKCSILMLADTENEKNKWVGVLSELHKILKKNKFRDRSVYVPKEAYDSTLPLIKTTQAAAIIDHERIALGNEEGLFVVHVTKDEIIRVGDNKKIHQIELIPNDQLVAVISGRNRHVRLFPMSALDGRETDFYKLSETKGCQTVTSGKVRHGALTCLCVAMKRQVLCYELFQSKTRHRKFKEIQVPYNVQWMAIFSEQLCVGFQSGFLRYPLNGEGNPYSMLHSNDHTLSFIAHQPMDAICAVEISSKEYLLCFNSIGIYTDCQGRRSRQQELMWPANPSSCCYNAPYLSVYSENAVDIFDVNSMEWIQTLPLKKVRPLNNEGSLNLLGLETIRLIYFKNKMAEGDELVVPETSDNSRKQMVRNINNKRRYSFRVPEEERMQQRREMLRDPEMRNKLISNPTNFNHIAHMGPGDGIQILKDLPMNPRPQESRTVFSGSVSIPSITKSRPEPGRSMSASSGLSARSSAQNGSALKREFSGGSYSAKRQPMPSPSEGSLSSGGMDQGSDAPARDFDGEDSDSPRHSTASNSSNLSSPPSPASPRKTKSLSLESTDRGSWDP
T4 sequence (P11802 whole entry): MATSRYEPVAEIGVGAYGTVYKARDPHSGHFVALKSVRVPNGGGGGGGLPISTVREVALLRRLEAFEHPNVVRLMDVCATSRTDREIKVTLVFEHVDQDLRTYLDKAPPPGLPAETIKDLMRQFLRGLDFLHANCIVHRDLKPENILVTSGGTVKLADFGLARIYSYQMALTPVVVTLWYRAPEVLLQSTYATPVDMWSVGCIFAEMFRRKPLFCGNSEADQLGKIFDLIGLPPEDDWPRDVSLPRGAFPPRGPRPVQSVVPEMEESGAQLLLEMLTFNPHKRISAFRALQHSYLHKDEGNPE
T4 sequence (P30281 whole entry partner): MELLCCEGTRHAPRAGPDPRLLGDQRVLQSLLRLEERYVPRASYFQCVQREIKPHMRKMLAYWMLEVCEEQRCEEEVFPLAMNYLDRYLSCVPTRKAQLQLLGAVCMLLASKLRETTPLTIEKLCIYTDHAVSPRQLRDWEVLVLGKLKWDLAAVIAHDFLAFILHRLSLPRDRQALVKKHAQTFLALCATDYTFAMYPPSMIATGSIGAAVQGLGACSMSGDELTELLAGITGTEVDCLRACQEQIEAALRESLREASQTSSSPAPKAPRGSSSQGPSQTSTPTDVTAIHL
T1 sequence (P42685 whole entry): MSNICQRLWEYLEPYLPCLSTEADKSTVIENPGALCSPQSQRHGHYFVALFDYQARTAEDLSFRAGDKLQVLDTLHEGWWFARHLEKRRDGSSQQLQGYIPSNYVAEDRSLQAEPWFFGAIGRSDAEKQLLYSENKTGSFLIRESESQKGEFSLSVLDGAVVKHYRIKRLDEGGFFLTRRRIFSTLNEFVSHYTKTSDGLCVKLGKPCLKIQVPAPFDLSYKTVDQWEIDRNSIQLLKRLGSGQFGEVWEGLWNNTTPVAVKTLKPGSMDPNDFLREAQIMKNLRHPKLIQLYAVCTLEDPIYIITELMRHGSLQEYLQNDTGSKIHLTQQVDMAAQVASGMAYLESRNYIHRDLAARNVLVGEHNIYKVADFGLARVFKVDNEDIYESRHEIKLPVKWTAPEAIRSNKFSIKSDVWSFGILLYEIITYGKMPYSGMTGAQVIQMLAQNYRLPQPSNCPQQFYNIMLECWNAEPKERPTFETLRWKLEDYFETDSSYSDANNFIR
T11 sequence (Q16816 whole entry): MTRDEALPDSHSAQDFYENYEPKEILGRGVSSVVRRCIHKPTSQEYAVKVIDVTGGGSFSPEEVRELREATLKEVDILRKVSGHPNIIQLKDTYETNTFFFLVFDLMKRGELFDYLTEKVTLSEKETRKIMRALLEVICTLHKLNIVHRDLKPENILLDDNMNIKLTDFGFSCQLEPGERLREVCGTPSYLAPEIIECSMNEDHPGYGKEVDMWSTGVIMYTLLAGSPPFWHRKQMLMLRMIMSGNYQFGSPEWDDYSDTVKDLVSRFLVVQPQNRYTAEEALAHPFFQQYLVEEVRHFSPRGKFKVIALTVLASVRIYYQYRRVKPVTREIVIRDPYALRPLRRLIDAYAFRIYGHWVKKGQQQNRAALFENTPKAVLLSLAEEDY
T6 sequence (P45983 whole entry): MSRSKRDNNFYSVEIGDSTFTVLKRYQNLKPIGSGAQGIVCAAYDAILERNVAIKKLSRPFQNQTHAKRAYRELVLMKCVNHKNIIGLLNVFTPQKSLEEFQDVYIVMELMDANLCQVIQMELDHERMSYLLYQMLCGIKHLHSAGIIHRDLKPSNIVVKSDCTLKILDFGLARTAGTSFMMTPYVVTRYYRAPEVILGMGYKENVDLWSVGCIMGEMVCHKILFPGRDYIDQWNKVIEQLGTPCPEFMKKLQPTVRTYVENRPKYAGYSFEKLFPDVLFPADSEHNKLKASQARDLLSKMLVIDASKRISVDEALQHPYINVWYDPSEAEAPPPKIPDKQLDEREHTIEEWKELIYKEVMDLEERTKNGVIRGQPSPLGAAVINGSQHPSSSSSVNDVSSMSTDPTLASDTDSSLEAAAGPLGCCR

Structure (SMILES)	Percentage inhibition of kinase enzyme activity [1]	Percentage inhibition of kinase enzyme activity [2]	Percentage inhibition of kinase enzyme activity [3]	Percentage inhibition of kinase enzyme activity [4]	Percentage inhibition of kinase enzyme activity [5]	Percentage inhibition of kinase enzyme activity [6]	Percentage inhibition of kinase enzyme activity [7]	Percentage inhibition of kinase enzyme activity [8]	Percentage inhibition of kinase enzyme activity [9]	Percentage inhibition of kinase enzyme activity [10]	Percentage inhibition of kinase enzyme activity [11]	Percentage inhibition of kinase enzyme activity [12]	Percentage inhibition of kinase enzyme activity [13]	Percentage inhibition of kinase enzyme activity [14]
CC#CC(=O)N1CCC[C@H]1c1nc(-c2ccc(C(=O)Nc3ccccn3)cc2)c2c(N)nccn12 [acalabrutinib]	47.48%	1.79%	-0.40%	-13.28%	1.55%	-0.88%	-1.85%	-7.47%	-7.33%	-0.37%	-4.16%	-9.88%	-7.78%	5.36%
C=CC(=O)N1CCC[C@@H](n2nc(-c3ccc(Oc4ccccc4)cc3)c3c(N)ncnc32)C1 [ibrutinib]	99.53%	4.82%	-1.03%	4.00%	-1.77%	-2.33%	-2.83%	-0.62%	-2.33%	6.57%	1.53%	-3.20%	-5.42%	2.30%
O=C(c1ccc(Oc2ccccc2)cc1Cl)c1c[nH]c2ncnc(N[C@@H]3CC[C@@H](CO)OC3)c12 [nemtabrutinib]	98.79%	60.67%	-7.65%	0.33%	-1.75%	-3.89%	4.23%	9.50%	-2.21%	79.33%	7.46%	7.65%	16.05%	8.78%
C=CC(=O)N1CCC([C@@H]2CCNc3c(C(N)=O)c(-c4ccc(Oc5ccccc5)cc4)nn32)CC1 [zanubrutinib]	31.32%	–	–	–	–	–	–	–	–	–	–	–	–	–
COc1ccc(F)cc1C(=O)NCc1ccc(-c2nn([C@@H](C)C(F)(F)F)c(N)c2C(N)=O)cc1 [pirtobrutinib]	13.63%	3.20%	-10.48%	4.05%	-1.75%	-0.29%	7.41%	0.63%	-1.08%	5.73%	4.81%	-6.50%	-4.30%	-5.02%
